Experimental data taken from ChEMBL document CHEMBL3390836, “Mannich- and LedererManasse-based analogues of the natural product S-(+)-curcuphenol as cancer proliferation and migration inhibitors” (Medchemcomm, 2012).

Tests used:
Type in all cases: functional
NCI-H23 [1] = assay: Cytotoxicity against human NCI-H23 cells assessed as cell growth at 10^-6 M after 48 hrs by SRB assay relative to control; details: NCI-H23, 48 h, read-out: Activity
[2] = Cytotoxicity against human OVCAR3 cells assessed as cell growth at 10^-8 M after 48 hrs by SRB assay relative to control; details: OVCAR-3, 48 h, read-out: Activity
SNB-19 [3] = assay: Cytotoxicity against human SNB19 cells assessed as cell growth at 10^-4 M after 48 hrs by SRB assay relative to control; details: SNB-19, 48 h, read-out: Activity
SNB-19 [4] = assay: Cytotoxicity against human SNB19 cells assessed as cell growth at 10^-8 M after 48 hrs by SRB assay relative to control; details: SNB-19, 48 h, read-out: Activity
[5] = Cytotoxicity against human SKOV3 cells assessed as cell growth at 10^-4 M after 48 hrs by SRB assay relative to control; details: SK-OV-3, 48 h, read-out: Activity
SK-MEL-5 = assay: Cytotoxicity against human SK-MEL-5 cells after 48 hrs by SRB assay; details: SK-MEL-5, 48 h
[6] = Cytotoxicity against human HCT116 cells after 48 hrs by SRB assay; details: HCT-116, 48 h; for CC50: read-out: LC50 (the source's name)
MOLT-4 = assay: Cytotoxicity against human MOLT4 cells after 48 hrs by SRB assay; details: MOLT-4, 48 h
SK-MEL-28 = assay: Cytotoxicity against human SK-MEL-28 cells assessed as cell growth at 10^-8 M after 48 hrs by SRB assay relative to control; details: SK-MEL-28, 48 h, read-out: Activity
786-0 = assay: Cytotoxicity against human 786-0 cells assessed as cell growth at 10^-6 M after 48 hrs by SRB assay relative to control; details: 786-0, 48 h, read-out: Activity
KM12 [7] = assay: Cytotoxicity against human KM12 cells after 48 hrs by SRB assay; details: KM12, 48 h; for CC50: read-out: LC50 (the source's name)
BT-549 = assay: Cytotoxicity against human BT549 cells assessed as cell growth at 10^-7 M after 48 hrs by SRB assay relative to control; details: BT-549, 48 h, read-out: Activity
IGROV-1 = assay: Cytotoxicity against human IGROV1 cells assessed as cell growth at 10^-6 M after 48 hrs by SRB assay relative to control; details: IGROV-1, 48 h, read-out: Activity
HOP-62 = assay: Cytotoxicity against human HOP62 cells assessed as cell growth at 10^-6 M after 48 hrs by SRB assay relative to control; details: HOP-62, 48 h, read-out: Activity
KM12 [8] = assay: Cytotoxicity against human KM12 cells assessed as cell growth at 10^-6 M after 48 hrs by SRB assay relative to control; details: KM12, 48 h, read-out: Activity
[9] = Cytotoxicity against human OVCAR4 cells assessed as cell growth at 10^-4 M after 48 hrs by SRB assay relative to control; details: OVCAR-4, 48 h, read-out: Activity
MDA-MB-435 = assay: Cytotoxicity against human MDA-MB-435 cells assessed as cell growth at 10^-6 M after 48 hrs by SRB assay relative to control; details: MDA-MB-435, 48 h, read-out: Activity
LOX IMVI = assay: Cytotoxicity against human LOXIMVI cells assessed as cell growth at 10^-8 M after 48 hrs by SRB assay relative to control; details: read-out: Activity
SN12C [10] = assay: Cytotoxicity against human SN12C cells assessed as cell growth at 10^-4 M after 48 hrs by SRB assay relative to control; details: read-out: Activity
[11] = Cytotoxicity against human OVCAR3 cells assessed as cell growth at 10^-4 M after 48 hrs by SRB assay relative to control; details: OVCAR-3, 48 h, read-out: Activity
[12] = Cytotoxicity against human OVCAR3 cells assessed as cell growth at 10^-7 M after 48 hrs by SRB assay relative to control; details: OVCAR-3, 48 h, read-out: Activity
K562 = assay: Cytotoxicity against human K562 cells after 48 hrs by SRB assay; details: K562, 48 h; for CC50: read-out: LC50 (the source's name)
NCI-H322M = assay: Cytotoxicity against human NCI-H322M cells after 48 hrs by SRB assay
SF-295 [13] = assay: Cytotoxicity against human SF295 cells assessed as cell growth at 10^-7 M after 48 hrs by SRB assay relative to control; details: SF-295, 48 h, read-out: Activity
MDA-MB-468 = assay: Cytotoxicity against human MDA-MB-468 cells assessed as cell growth at 10^-4 M after 48 hrs by SRB assay relative to control; details: MDA-MB-468, 48 h, read-out: Activity
[14] = Cytotoxicity against human EKVX cells after 48 hrs by SRB assay
NCI-H460 = assay: Cytotoxicity against human NCI-H460 cells after 48 hrs by SRB assay; details: NCI-H460, 48 h; for CC50: read-out: LC50 (the source's name)
SN12C [15] = assay: Cytotoxicity against human SN12C cells assessed as cell growth at 10^-8 M after 48 hrs by SRB assay relative to control; details: read-out: Activity
SF-295 [16] = assay: Cytotoxicity against human SF295 cells assessed as cell growth at 10^-4 M after 48 hrs by SRB assay relative to control; details: SF-295, 48 h, read-out: Activity
CAKI-1 = assay: Cytotoxicity against human Caki1 cells assessed as cell growth at 10^-4 M after 48 hrs by SRB assay relative to control; details: CAKI-1, 48 h, read-out: Activity
NCI-H23 [17] = assay: Cytotoxicity against human NCI-H23 cells after 48 hrs by SRB assay; details: NCI-H23, 48 h
NCI-H23 [18] = assay: Cytotoxicity against human NCI-H23 cells assessed as cell growth at 10^-7 M after 48 hrs by SRB assay relative to control; details: NCI-H23, 48 h, read-out: Activity
COLO 205 = assay: Cytotoxicity against human COLO205 cells after 48 hrs by SRB assay; details: COLO 205, 48 h; for CC50: read-out: LC50 (the source's name)
MDA-MB-231 = assay: Cytotoxicity against human MDA-MB-231 cells after 48 hrs by SRB assay; details: MDA-MB-231, 48 h
HCC 2998 = assay: Cytotoxicity against human HCC2998 cells assessed as cell growth at 10^-4 M after 48 hrs by SRB assay relative to control; details: HCC 2998, 48 h, read-out: Activity
MCF7 = assay: Cytotoxicity against human MCF7 cells assessed as cell growth at 10^-8 M after 48 hrs by SRB assay relative to control; details: MCF7, 48 h, read-out: Activity

CC(C)=CCC[C@H](C)c1ccc(C)c2c1OCN(CC1CCNCC1)C2
growth at 1 µM (NCI-H23 [1]): 105%
growth at 0.01 µM [2]: 99%
growth at 100 µM (SNB-19 [3]): -82%
growth at 0.01 µM (SNB-19 [4]): 95%
growth at 100 µM [5]: -94%
GI50 (SK-MEL-5): 4.97 µM
LC50 (SK-MEL-5): 49.8 µM
TGI (SK-MEL-5): 18.3 µM
GI50 [6]: 7.17 µM
TGI [6]: 21.7 µM
CC50 [6]: 56.3 µM
GI50 (MOLT-4): 14.6 µM
LC50 (MOLT-4): > 100 µM
TGI (MOLT-4): 43.3 µM
growth at 0.01 µM (SK-MEL-28): 107%
growth at 1 µM (786-0): 99%
GI50 (KM12 [7]): 12.3 µM
TGI (KM12 [7]): 26 µM
CC50 (KM12 [7]): 55 µM
growth at 0.1 µM (BT-549): 87%
growth at 1 µM (IGROV-1): 106%
growth at 1 µM (HOP-62): 90%
growth at 1 µM (KM12 [8]): 103%
growth at 100 µM [9]: -91%
growth at 1 µM (MDA-MB-435): 96%
growth at 0.01 µM (LOX IMVI): 100%
growth at 100 µM (SN12C [10]): -88%
growth at 100 µM [11]: -84%
growth at 0.1 µM [12]: 105%
GI50 (K562): 2.68 µM
TGI (K562): 8.44 µM
CC50 (K562): 97.7 µM
GI50 (NCI-H322M): 19.4 µM
LC50 (NCI-H322M): 77.8 µM
TGI (NCI-H322M): 38.8 µM
growth at 0.1 µM (SF-295 [13]): 94%
growth at 100 µM (MDA-MB-468): -80%
GI50 [14]: 20.7 µM
LC50 [14]: > 100 µM
TGI [14]: 66.9 µM
GI50 (NCI-H460): 5.36 µM
TGI (NCI-H460): 16.6 µM
CC50 (NCI-H460): 43.1 µM
growth at 0.01 µM (SN12C [15]): 97%
growth at 100 µM (SF-295 [16]): -67%
growth at 100 µM (CAKI-1): -69%
GI50 (NCI-H23 [17]): 15.7 µM
LC50 (NCI-H23 [17]): 72 µM
TGI (NCI-H23 [17]): 33.6 µM
growth at 0.1 µM (NCI-H23 [18]): 94%
GI50 (COLO 205): 1.86 µM
TGI (COLO 205): 3.41 µM
CC50 (COLO 205): 6.25 µM
GI50 (MDA-MB-231): 12.5 µM
LC50 (MDA-MB-231): 64.1 µM
TGI (MDA-MB-231): 28.3 µM
growth at 100 µM (HCC 2998): -94%
growth at 0.01 µM (MCF7): 98%

CC(C)=CCC[C@H](C)c1ccc(C)c(CNCC2CCNCC2)c1O
growth at 1 µM (NCI-H23 [1]): 94%
growth at 0.01 µM [2]: 105%
growth at 100 µM (SNB-19 [3]): 21%
growth at 0.01 µM (SNB-19 [4]): 92%
growth at 100 µM [5]: 8%
GI50 (SK-MEL-5): 3.41 µM
LC50 (SK-MEL-5): 12.9 µM
TGI (SK-MEL-5): 6.63 µM
GI50 [6]: 5.08 µM
TGI [6]: 12.4 µM
CC50 [6]: > 25 µM
LC50 (MOLT-4): > 25 µM
growth at 0.01 µM (SK-MEL-28): 102%
growth at 1 µM (786-0): 85%
GI50 (KM12 [7]): 4.12 µM
TGI (KM12 [7]): 8.38 µM
CC50 (KM12 [7]): 17.1 µM
growth at 0.1 µM (BT-549): 89%
growth at 1 µM (IGROV-1): 98%
growth at 1 µM (HOP-62): 97%
growth at 1 µM (KM12 [8]): 93%
growth at 100 µM [9]: 44%
growth at 1 µM (MDA-MB-435): 92%
growth at 0.01 µM (LOX IMVI): 95%
growth at 100 µM (SN12C [10]): 39%
growth at 100 µM [11]: 3%
growth at 0.1 µM [12]: 104%
GI50 (K562): 1.01 µM
TGI (K562): 4.86 µM
CC50 (K562): 19.9 µM
GI50 (NCI-H322M): 7.02 µM
LC50 (NCI-H322M): > 25 µM
TGI (NCI-H322M): > 25 µM
growth at 0.1 µM (SF-295 [13]): 91%
growth at 100 µM (MDA-MB-468): -90%
GI50 [14]: 8.56 µM
LC50 [14]: > 25 µM
TGI [14]: > 25 µM
GI50 (NCI-H460): 4.45 µM
TGI (NCI-H460): 9.23 µM
CC50 (NCI-H460): 19.1 µM
growth at 0.01 µM (SN12C [15]): 92%
growth at 100 µM (SF-295 [16]): -73%
growth at 100 µM (CAKI-1): -29%
GI50 (NCI-H23 [17]): > 25 µM
LC50 (NCI-H23 [17]): > 25 µM
TGI (NCI-H23 [17]): > 25 µM
growth at 0.1 µM (NCI-H23 [18]): 94%
GI50 (COLO 205): 3.98 µM
TGI (COLO 205): 7.57 µM
CC50 (COLO 205): 14.4 µM
GI50 (MDA-MB-231): 3.48 µM
LC50 (MDA-MB-231): 19.3 µM
TGI (MDA-MB-231): 8.19 µM
growth at 100 µM (HCC 2998): -94%
growth at 0.01 µM (MCF7): 90%
